# Reference: patent US8741940B2, “Microbicidal composition” (Rohm and Haas Company, priority 2005, dated 2014)
# “And” between values parts separate entries of the source, which are not always exact repeats. Identical values can stand only once. Like-named read-outs stand apart in the source and are kept apart here.
# Legend:
# Format in all cases: cell-based
# Conditions in all cases: for Qa (concentration of MBIT producing the end point, MIC): alone where Qb = 0, otherwise in the mixture
# [1] = tested on: Aspergillus niger (A. niger—ATCC 16404); assay: Synergy test, microtiter plate high resolution MIC assay, mold in PDB medium; set-up: Qb (Second Component B) / Qa (First Component A): unit: ppm
# How it was run: (§1)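 High-resolution microtiter MICs spanned 2 to 10,000 ppm active, tested alongside varying BBIT or MBIT as component A. E. coli was run at ~5×10^6/mL in M9GY (0.2% glucose, 0.1% yeast extract) at 30 °C; C. albicans and A. niger at 5×10^5/mL in PDB. Synergy index is Qa/QA + Qb/QB, with >1 indicating antagonism.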
# [2] = tested on: Candida albicans (C. albicans—ATCC 10231); assay: Synergy test, microtiter plate high resolution MIC assay, yeast in PDB medium; set-up: Qb (Second Component B) / Qa (First Component A): unit: ppm
# How it was run: as §1
# [3] = tested on: Escherichia coli (E. coli—ATCC #8739); assay: Synergy test, microtiter plate high resolution MIC assay, bacterium in M9GY medium; set-up: Qa (First Component A) / Qb (Second Component B): unit: ppm
# How it was run: as §1
# [4] = A=MBIT, B=2-bromo-2-nitro-propane-1,3-diol (BNPD), A. niger 16404 - PDB, 4 days
# [5] = A=MBIT, B=BBIT, A. niger 16404 - PDB, 4 days
# [6] = A=MBIT, B=Benzalkonium chloride (Hyamine 3500), A. niger 16404 - PDB, 4 days
# [7] = A=MBIT, B=Benzisothiazolinone (BIT), A. niger 16404 - PDB, 7 days
# [8] = A=MBIT, B=Benzyl alcohol, A. niger 16404 - PDB, 4 days
# [9] = A=MBIT, B=Caprylyl glycol, A. niger 16404 - PDB, 4 days
# [10] = A=MBIT, B=Chlorphenesin, A. niger 16404 - PDB, 3 days
# [11] = A=MBIT, B=DMDM Hydantoin (DMDMH), A. niger 16404 - PDB, 3 days
# [12] = A=MBIT, B=dithio-2,2′-bis(N-methylbenzamide) (DTBMA), A. niger 16404 - PDB, 3 days
# [13] = A=MBIT, B=2-bromo-2-nitro-propane-1,3-diol (BNPD), C. albicans 10231 - PDB, 24 hours
# [14] = A=MBIT, B=BBIT, C. albicans 10231 - PDB, 48 hours
# [15] = A=MBIT, B=Benzalkonium chloride (Hyamine 3500), C. albicans 10231 - PDB, 24 hours
# [16] = A=MBIT, B=Benzisothiazolinone (BIT), C. albicans 10231 - PDB, 48 hours
# [17] = A=MBIT, B=Benzyl alcohol, C. albicans 10231 - PDB, 48 hours
# [18] = A=MBIT, B=Caprylyl glycol, C. albicans 10231 - PDB, 24 hours
# [19] = A=MBIT, B=Chlorphenesin, C. albicans 10231 - PDB, 72 hours
# [20] = A=MBIT, B=DMDM Hydantoin (DMDMH), C. albicans 10231 - PDB, 24 hours
# [21] = A=MBIT, B=dithio-2,2′-bis(N-methylbenzamide) (DTBMA), C. albicans 10231 - PDB, 24 hours
# [22] = C. albicans 10231, PDB, 24 hours
# [23] = C. albicans 10231, PDB, 48 hours
# [24] = C. albicans 10231, PDB, 72 hours
# [25] = A=MBIT, B=2-bromo-2-nitro-propane-1,3-diol (BNPD), E. coli 8739 - M9GY, 24 hours
# [26] = A=MBIT, B=BBIT, E. coli 8739 - M9GY, 24 hours
# [27] = A=MBIT, B=Benzalkonium chloride (Hyamine 3500), E. coli 8739 - M9GY, 24 hours
# [28] = A=MBIT, B=Benzisothiazolinone (BIT), E. coli 8739 - M9GY, 24 hours
# [29] = A=MBIT, B=Benzyl alcohol, E. coli 8739 - M9GY, 24 hours
# [30] = A=MBIT, B=Caprylyl glycol, E. coli 8739 - M9GY, 24 hours
# [31] = A=MBIT, B=Chlorphenesin, E. coli 8739 - M9GY, 24 hours
# [32] = A=MBIT, B=DMDM Hydantoin (DMDMH), E. coli 8739 - M9GY, 24 hours
# [33] = A=MBIT, B=dithio-2,2′-bis(N-methylbenzamide) (DTBMA), E. coli 8739 - M9GY, 24 hours
structure (smiles),measurement,setting,value
"Cn1sc2ccccc2c1=O [MBIT, N-methyl-1,2-benzisothiazolin-3-one]",Qa (First Component A),[1],30 and 40
same,Qa (concentration of First Component A = MBIT at the end point),[1],40
same,SI (synergy index),[1],1.00
same,SI (synergy index),"[1]; A. niger 16404, PDB, 3 days",1.00
same,"Qa (concentration of MBIT producing the end point, MIC)","[1]; A. niger 16404, PDB, 3 days",40 ppm and 20 ppm and 30 ppm
same,SI (synergy index),"[1]; A. niger 16404, PDB, 4 days",1.00
same,"Qa (concentration of MBIT producing the end point, MIC)","[1]; A. niger 16404, PDB, 4 days",30 ppm and 40 ppm
same,SI (synergy index),"[1]; A. niger 16404, PDB, 7 days",1.00
same,"Qa (concentration of MBIT producing the end point, MIC)","[1]; A. niger 16404, PDB, 7 days",50 ppm and 60 ppm
same,Qa (First Component A),[1]; [4],30
same,SI (synergy index),[1]; [4],1.00
same,Qa (First Component A),[1]; [5],40
same,SI (synergy index),[1]; [5],1.00
same,Qa (First Component A),[1]; [6],30
same,SI (synergy index),[1]; [6],1.00
same,Qa (First Component A),[1]; [7],50
same,SI (synergy index),[1]; [7],1.00
same,Qa (First Component A),[1]; [8],50
same,SI (synergy index),[1]; [8],1.00
same,Qa (First Component A),[1]; [9],20
same,SI (synergy index),[1]; [9],1.00
same,Qa (First Component A),[1]; [10],20
same,SI (synergy index),[1]; [10],1.00
same,Qa (First Component A),[1]; [11],40
same,SI (synergy index),[1]; [11],1.00
same,Qa (First Component A),[1]; [12],30
same,SI (synergy index),[1]; [12],1.00
same,Qa (First Component A),[2],8 and 10
same,Qa (concentration of First Component A = MBIT at the end point),[2],7.5
same,SI (synergy index),[2],1.00
same,Qa (First Component A),[2]; [13],8
same,SI (synergy index),[2]; [13],1.00
same,Qa (First Component A),[2]; [14],10
same,SI (synergy index),[2]; [14],1.00
same,Qa (First Component A),[2]; [15],8
same,SI (synergy index),[2]; [15],1.00
same,Qa (First Component A),[2]; [16],10
same,SI (synergy index),[2]; [16],1.00
same,Qa (First Component A),[2]; [17],10
same,SI (synergy index),[2]; [17],1.00
same,Qa (First Component A),[2]; [18],10
same,SI (synergy index),[2]; [18],1.00
same,Qa (First Component A),[2]; [19],10
same,SI (synergy index),[2]; [19],1.00
same,Qa (First Component A),[2]; [20],7.5
same,SI (synergy index),[2]; [20],1.00
same,Qa (First Component A),[2]; [21],10
same,SI (synergy index),[2]; [21],1.00
same,SI (synergy index),[2]; [22],1.00
same,"Qa (concentration of MBIT producing the end point, MIC)",[2]; [22],7.5 ppm and 10 ppm and 15 ppm and 8 ppm
same,SI (synergy index),[2]; [23],1.00
same,"Qa (concentration of MBIT producing the end point, MIC)",[2]; [23],7.5 ppm and 10 ppm
same,SI (synergy index),[2]; [24],1.00
same,"Qa (concentration of MBIT producing the end point, MIC)",[2]; [24],15 ppm
same,Qa (First Component A),[3],10 and 7.5
same,Qa (concentration of First Component A = MBIT at the end point),[3],10
same,SI (synergy index),[3],1.00
same,Qa (First Component A),[3]; [25],10
same,SI (synergy index),[3]; [25],1.00
same,Qa (First Component A),[3]; [26],10
same,SI (synergy index),[3]; [26],1.00
same,Qa (First Component A),[3]; [27],100
same,SI (synergy index),[3]; [27],1.00
same,Qa (First Component A),[3]; [28],10
same,SI (synergy index),[3]; [28],1.00
same,Qa (First Component A),[3]; [29],10
same,SI (synergy index),[3]; [29],1.00
same,Qa (First Component A),[3]; [30],10
same,SI (synergy index),[3]; [30],1.00
same,Qa (First Component A),[3]; [31],15
same,SI (synergy index),[3]; [31],1.00
same,Qa (First Component A),[3]; [32],10
same,SI (synergy index),[3]; [32],1.00
same,Qa (First Component A),[3]; [33],15
same,SI (synergy index),[3]; [33],1.00
same,SI (synergy index),"[3]; E. coli 8739, M9GY, 24 hours",1.00
same,"Qa (concentration of MBIT producing the end point, MIC)","[3]; E. coli 8739, M9GY, 24 hours",10 ppm and 15 ppm
same,SI (synergy index),"[3]; E. coli 8739, M9GY, 48 hours",1.00
same,"Qa (concentration of MBIT producing the end point, MIC)","[3]; E. coli 8739, M9GY, 48 hours",20 ppm and 15 ppm
same,SI (synergy index),"[3]; E. coli 8739, M9GY, 72 hours",1.00
same,"Qa (concentration of MBIT producing the end point, MIC)","[3]; E. coli 8739, M9GY, 72 hours",15 ppm
